Test results from US11001563B2, “SSAO inhibitor” (SHANDONG DANHONG PHARMACEUTICAL CO., LTD., priority 2017, dated 2021).

Assays:
[1] = molecular target: VAP-1/SSAO (Homo sapiens (Human), UniProt Q16853); experiment: VAP-1 cell activity assay (HUVEC or CHO cells transfected with VAP-1/pCDNA (3.1) plasmid, Amplex Red); format: cell-based; conditions: HUVEC or CHO cells transfected with VAP-1 plasmid; read-out: VAP-1/SSAO Cellular Inhibitory Activity IC50
Procedure: The inhibition of the sample on VAP-1 cell activity was measured by using an Amplex® Red Monoamine Oxidase kit (Invitrogen #A12214).
The cultured HUVEC or CHO cells were plated into a 6-well plate at a density of 0.8 M/well, placed in a 37° C., 5% CO2 incubator for incubation for 24 hours, and then the cells was transferred with a Lipo2000 reagent and a VAP-1/pCDNA (3.1) plasmid, and liquid was changed for the cells after 5 hours (Lipo2000 was toxic to the cells); after 24 hours, the cells were digested and plated into 384-well plates with a density of 25 μl, 10000 cells/well, and liquid was replaced with medium without FBS for the cells after 6-7 hours, and the cell plates were incubated overnight at 37° C. in a 5% CO2 incubator.
1) Dilution of the compound: serial dilution in 4× gradient was carried out with 100% DMSO, 10 points were diluted, the starting concentration of the to-be-tested compound was 0.5 mM (final concentration was 1 μM); 100 nl of compound solution was transferred to a 384-well cell assay plate with ECHO. Negative control wells: 100 nl of DMSO; background control wells: 100 nl DMSO+25 μL medium.
2) The reaction was carried out in the dark at room temperature for 30 min.
3) Preparation of Amplex Red reagent+HRP+benzylamine substrate working solution: Amplex Red reagent+HRP+benzylamine substrate working solution (200 μM Amplex Red reagent+1 U/mL HRP+1 mM benzylamine): 45 μl of 20 mM Amplex Red reagent mother solution, 22.5 μl of 200 U/ml horseradish peroxidase (HRP) mother solution and 45 ul of 100 mM benzylamine were tanken and added to 4.3875 ml of 1× reaction buffer.
4) After 30 min, 25 μl of the substrate working solution was added to a 384-well plate, and a final concentration was 100 μM Amplex Red reagent+0.5 U/mL HRP+0.5 mM benzylamine, respectively.
5) The reaction was carried out in the dark at room temperature for 60 minutes, and the fluorescence value was measured by Envision: the excitation wave was 535 nm, and the emission wave was 590 nm.
6) Inhibition rate calculation formula: % inhibition rate=(1−(test hole minus background−positive control well minus background)/(negative control well minus background-positive control well minus background))*100
7) The data were analyzed with Prism. The IC50 of the sample against VAP-1 cells was calculated.

[2] = Distribution of compounds in liver and blood of CD-1 mice; format: in vivo; conditions: single oral dose
Procedure: Experimental purpose: distribution of compounds in liver and blood of CD-1 mice was tested;
CD-1 Mice (male, 25-35 g, 6-9 weeks old, Shanghai Slack);
Experimental procedure: after oral administration, the drug was distributed in the liver and blood of rodents, candidate compounds in the experiment were formulated into a clear solution to be administered to mice in a single oral dose. The oral solvent was a certain proportion of an aqueous solution of hydroxypropyl P-cyclodextrin or a physiological saline solution. The concentration of the drug in the liver and blood was measured at 1 hour and 4 hours after administration.

[3] = molecular target: hERG potassium channel (Homo sapiens (Human), UniProt Q12809); experiment: Inhibition test of hERG potassium ion channel (automatic patch clamp, CHO-hERG cells); format: cell-based
Chain of hERG potassium channel (Q12809 whole entry): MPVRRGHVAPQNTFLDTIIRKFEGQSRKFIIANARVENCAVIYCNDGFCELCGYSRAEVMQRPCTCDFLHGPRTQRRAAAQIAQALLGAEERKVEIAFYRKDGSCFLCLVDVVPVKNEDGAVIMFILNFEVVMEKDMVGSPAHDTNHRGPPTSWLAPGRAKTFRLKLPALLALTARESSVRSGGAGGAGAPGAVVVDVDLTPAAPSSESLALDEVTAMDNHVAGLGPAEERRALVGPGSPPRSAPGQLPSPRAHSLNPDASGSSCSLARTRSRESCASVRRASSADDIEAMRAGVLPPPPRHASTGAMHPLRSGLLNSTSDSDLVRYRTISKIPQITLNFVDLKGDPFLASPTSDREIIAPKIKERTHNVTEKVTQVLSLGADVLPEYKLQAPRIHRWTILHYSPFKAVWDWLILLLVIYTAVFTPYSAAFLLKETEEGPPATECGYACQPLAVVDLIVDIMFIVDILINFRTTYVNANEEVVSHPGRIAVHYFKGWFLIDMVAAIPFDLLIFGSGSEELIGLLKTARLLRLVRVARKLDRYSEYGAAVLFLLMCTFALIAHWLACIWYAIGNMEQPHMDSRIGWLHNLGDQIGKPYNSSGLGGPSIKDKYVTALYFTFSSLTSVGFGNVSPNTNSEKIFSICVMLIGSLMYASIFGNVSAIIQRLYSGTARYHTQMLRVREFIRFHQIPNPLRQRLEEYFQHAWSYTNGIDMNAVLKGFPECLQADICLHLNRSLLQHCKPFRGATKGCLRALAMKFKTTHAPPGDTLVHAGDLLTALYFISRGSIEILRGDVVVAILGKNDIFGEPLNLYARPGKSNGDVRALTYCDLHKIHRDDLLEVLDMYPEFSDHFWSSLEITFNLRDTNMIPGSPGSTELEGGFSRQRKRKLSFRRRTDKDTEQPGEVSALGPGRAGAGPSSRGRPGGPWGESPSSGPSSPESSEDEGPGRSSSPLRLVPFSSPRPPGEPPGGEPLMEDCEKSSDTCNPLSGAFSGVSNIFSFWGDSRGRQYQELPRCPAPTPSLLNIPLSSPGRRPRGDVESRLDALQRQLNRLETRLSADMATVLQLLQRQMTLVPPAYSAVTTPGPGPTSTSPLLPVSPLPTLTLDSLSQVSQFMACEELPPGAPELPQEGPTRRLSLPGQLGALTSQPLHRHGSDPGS
Procedure: The effect of the to-be-tested compound on the potassium ion channel of hERG was detected by a fully automatic patch clamp method.
The cells stably expressing hERG potassium channel used in the experiment were obtained from CHO-hERE of Aviva Biosciences, and CHO-hERG was cultured in 5% CO2 at 37° C.
CHO-hERG cells prepared for the experiment were cultured for at least two days, and the cell density reached 75% or more. Prior to the start of the experiment, cells were digested with TrypLE and then resuspended in extracellular fluid to collect the cells.
The to-be-tested compound and the positive control Amitriptyline were dissolved in DMSO to a certain concentration of the stock solution, and then diluted according to different gradients, and finally added to the extracellular fluid in a certain ratio, and diluted to a concentration to be measured. Visual inspection was performed to see if there was any precipitation before the start of the experiment. Finally, the concentration of DMSO in the to-be-tested solution and the positive control Amitriptyline should not exceed 0.3%.
The clamping potential was kept at −80 mv, first a voltage stimulation of −50 mv was given for 80 ms to record the cell leakage current value, and then was depolarized to +20 mv to be maintained for 4800 ms, the channel of hERG was open, and then repolarized to −50 mv to be maintained 5000 ms, hERG tail current was led out and recorded, and finally, the voltage was returned to the clamping potential of −80 mv to be maintained for 3100 ms. The above voltage stimulation was repeated once every 15000 ms.
hERG QPatch^HTX experiment was performed at room temperature. A whole cell protocol, a voltage stimulation protocol and a compound detection protocol were established on the software of QPatch Assay Software 5.2 (Sophion Bioscience).
First, 30 repeated set voltage stimulations were performed, which was the baseline area for subsequent analysis, followed by the addition of 5 μl of extracellular fluid, repeated for three times. The concentration of each compound added in sequence was repeated three times in a volume of 5 μl. The cells were incubated for at least 5 min at each test concentration. During the entire recording process, the indicators needed to meet the data analysis acceptance criteria. If the standard was not met, the cells would not be included in the analysis scope, and the compounds would be retested. The above recording process was automatically operated by Qpatch analysis software. […]
In each complete current record, based on the percentage of peak current in the negative control, the percent inhibition of the concentration of each compound can be calculated. […]

Chain of VAP-1/SSAO (Q16853 whole entry): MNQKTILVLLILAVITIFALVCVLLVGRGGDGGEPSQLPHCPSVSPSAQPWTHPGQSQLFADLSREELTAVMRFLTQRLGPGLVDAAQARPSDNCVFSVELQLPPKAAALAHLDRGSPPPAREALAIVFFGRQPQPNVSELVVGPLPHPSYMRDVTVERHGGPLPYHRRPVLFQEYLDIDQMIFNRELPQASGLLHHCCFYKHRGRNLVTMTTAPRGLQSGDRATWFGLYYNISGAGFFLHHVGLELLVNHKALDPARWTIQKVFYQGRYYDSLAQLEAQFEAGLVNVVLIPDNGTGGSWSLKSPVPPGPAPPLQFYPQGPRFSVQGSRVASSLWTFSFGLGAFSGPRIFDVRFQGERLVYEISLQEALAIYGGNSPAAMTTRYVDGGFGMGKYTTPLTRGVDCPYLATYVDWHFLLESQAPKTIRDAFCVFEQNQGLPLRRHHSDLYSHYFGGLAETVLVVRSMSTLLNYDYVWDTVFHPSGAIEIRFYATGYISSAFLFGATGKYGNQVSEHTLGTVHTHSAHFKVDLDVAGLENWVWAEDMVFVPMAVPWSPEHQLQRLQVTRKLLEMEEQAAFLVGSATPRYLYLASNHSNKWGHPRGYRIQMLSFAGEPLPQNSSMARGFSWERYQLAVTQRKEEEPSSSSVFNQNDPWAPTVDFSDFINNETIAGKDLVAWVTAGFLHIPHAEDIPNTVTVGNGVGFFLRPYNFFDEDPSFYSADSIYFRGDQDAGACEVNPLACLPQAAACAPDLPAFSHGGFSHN

Compound: Cl.Cn1nc(-c2ccc(OC/C(=C/F)CN)cc2)nc1C(F)F [WX126]
- IC50 [1]: 0.3 nM
- Liver Concentration ([2]; @1.0 hour): 13520
- Liver Concentration/Plasma Concentration ratio ([2]; @1.0 hour): 15
- Plasma Concentration ([2]; @1.0 hour): 934
- Liver Concentration ([2]; @4.0 hour): 3364
- Liver Concentration/Plasma Concentration ratio ([2]; @4.0 hour): 17
- Plasma Concentration ([2]; @4.0 hour): 190
- IC50 ([3]; QPatch whole cell patch clamp, CHO-hERG, 0.24-30.00 μM): > 30000 nM
- Inhibition of hERG potassium current (in words) ([3]; conclusion statement): weak inhibition
